The target in this assay is T1, Prostacyclin Receptors (IP Receptors) of Human Thrombocyte Membranes (Homo sapiens, UniProt P43119).
T1 construct: Thrombocyte membranes are obtained by centrifuging 50 ml of human blood; tissue Maco Pharma, Langen (buffy coats); host or cells: human thrombocyte (platelet) membranes from human blood
Briefly: Binding to prostacyclin receptors (IP receptors) of human thrombocyte membranes, 3H-Iloprost displacement. The note with it: 3 nM 3H-Iloprost, 60 min, room temperature. The method, then: B-1. Studies of Binding to Prostacyclin Receptors (IP Receptors) of Human Thrombocyte Membranes
Thrombocyte membranes are obtained by centrifuging 50 ml of human blood (Buffy coats with CDP Stabilizer, from Maco Pharma, Langen) for 20 min at 160×g. Remove the supernatant (platelet-rich plasma, PRP) and then centrifuge again at 2000×g for 10 min at room temperature. Resuspend the sediment in 50 mM tris(hydroxymethyl)amino-methane, which has been adjusted to a pH of 7.4 with 1 N hydrochloric acid, and store at −20° C. overnight. On the next day, centrifuge the suspension at 80 000×g and 4° C. for 30 min. Discard the supernatant. Resuspend the sediment in 50 mM tris(hydroxy-methyl)aminomethane/hydrochloric acid, 0.25 mM ethylene diamine tetraacetic acid (EDTA), pH 7.4, and then centrifuge once again at 80 000×g and 4° C. for 30 min. Take up the membrane sediment in binding buffer (50 mM tris(hydroxymethyl)-aminomethane/hydrochloric acid, 5 mM magnesium chloride, pH 7.4) and store at −70° C. until the binding test.
For the binding test, incubate 3 nM ^3H-Iloprost (592 GBq/mmol, from AmershamBioscience) for 60 min with 300-1000 μg/ml of human thrombocyte membranes per charge (max. 0.2 ml) in the presence of the test substances at room temperature. After stopping, add cold binding buffer to the membranes and wash with 0.1% bovine serum albumin. After adding Ultima Gold Scintillator, quantify the radioactivity bound to the membranes using a scintillation counter. The nonspecific binding is defined as radioactivity in the presence of 1 μM Iloprost (from Cayman Chemical, Ann Arbor) and is as a rule <25% of the bound total radioactivity. The binding data (IC50 values) are determined using the program GraphPad Prism Version 3.02.

T1 sequence (P43119 whole entry): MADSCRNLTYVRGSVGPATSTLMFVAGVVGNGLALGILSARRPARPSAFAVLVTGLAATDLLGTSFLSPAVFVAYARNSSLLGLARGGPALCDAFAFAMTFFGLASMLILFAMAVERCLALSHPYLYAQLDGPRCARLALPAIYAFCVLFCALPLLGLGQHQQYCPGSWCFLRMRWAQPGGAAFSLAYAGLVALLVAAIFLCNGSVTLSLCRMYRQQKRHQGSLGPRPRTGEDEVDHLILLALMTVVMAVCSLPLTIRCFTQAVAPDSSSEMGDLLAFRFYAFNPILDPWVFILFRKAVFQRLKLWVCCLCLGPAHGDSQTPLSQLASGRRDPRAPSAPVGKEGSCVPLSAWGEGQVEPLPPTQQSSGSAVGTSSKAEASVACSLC

On to `CCCNC(=O)/C(C)=C/c1c(-c2ccccc2)oc2ncnc(O[C@H](C)CCCCC(=O)O)c12` [Example 21, (6R)-6-({5-[(1E)-2-methyl-3-oxo-3-(propylamino)prop-1-en-1-yl]-6-phenylfuro[2,3-d]pyrimidin-4-yl}oxy)heptanoic acid], for which the IC50 worked out at 132 nM. The same measure for `C=CCOC(=O)/C=C/c1c(-c2ccccc2)oc2ncnc(O[C@H](C)CCCCC(=O)O)c12` [Example 15]: 545 nM. To `CCOC(=O)/C(C)=C/c1c(-c2ccccc2)oc2ncnc(O[C@H](C)CCCCC(=O)O)c12` [Example 16, (6R)-6-({5-[(1E)-3-ethoxy-2-methyl-3-oxoprop-1-en-1-yl]-6-phenylfuro[2,3-d]pyrimidin-4-yl}oxy)heptanoic acid] belongs 13 nM. The same measure for `CCCC(=O)/C=C/c1c(-c2ccccc2)oc2ncnc(O[C@H](C)CCCCC(=O)O)c12` [Example 17]: 1050 nM.

For the origin of these results see patent US20100267749A1, “TRISUBSTITUTED FUROPYRIMIDINES AND USE THEREOF” (BAYER SCHERING PHARMA AKTIENGESELLSCHAFT, priority 2007, published 2010).
